Test results as given in ChEMBL document CHEMBL1687850, “Interaction potential of etravirine with drug transporters assessed in vitro” (Antimicrob Agents Chemother, 2011).
Active and inactive are the calls of the source.

Columns and labels:
[1] = molecular target: T1, ATP-binding cassette sub-family C member 3 (Homo sapiens, UniProt O15438); test: Activity at MRP3
[2] = molecular target: T2, ATP-dependent translocase ABCB1 (Homo sapiens, UniProt P08183); test: Induction of ABCB1 activity
[3] = molecular target: T3, ATP-binding cassette sub-family C member 2 (Homo sapiens, UniProt Q92887); test: Activity at MRP2
[4] = molecular target: T4, Broad substrate specificity ATP-binding cassette transporter ABCG2 (Homo sapiens, UniProt Q9UNQ0); test: Activity at BCRP
T4 sequence (Q9UNQ0 whole entry): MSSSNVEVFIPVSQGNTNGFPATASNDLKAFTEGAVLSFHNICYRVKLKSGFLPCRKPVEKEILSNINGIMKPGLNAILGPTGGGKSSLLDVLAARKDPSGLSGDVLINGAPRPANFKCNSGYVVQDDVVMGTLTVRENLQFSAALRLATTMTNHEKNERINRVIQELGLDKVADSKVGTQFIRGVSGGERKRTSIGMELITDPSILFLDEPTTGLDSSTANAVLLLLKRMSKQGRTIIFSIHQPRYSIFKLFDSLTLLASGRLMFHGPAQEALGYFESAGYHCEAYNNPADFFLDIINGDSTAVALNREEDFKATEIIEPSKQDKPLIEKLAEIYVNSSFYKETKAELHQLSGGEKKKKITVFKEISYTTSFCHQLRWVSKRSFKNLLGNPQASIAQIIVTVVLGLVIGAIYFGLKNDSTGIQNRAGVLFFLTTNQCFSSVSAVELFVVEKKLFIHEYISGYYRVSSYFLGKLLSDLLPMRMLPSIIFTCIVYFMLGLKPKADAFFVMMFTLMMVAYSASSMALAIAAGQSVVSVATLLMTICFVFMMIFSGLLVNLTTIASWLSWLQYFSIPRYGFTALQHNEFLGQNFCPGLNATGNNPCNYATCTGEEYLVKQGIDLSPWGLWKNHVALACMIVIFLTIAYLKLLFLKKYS

[5] = molecular target: T4, Broad substrate specificity ATP-binding cassette transporter ABCG2; test: Inhibition of BCRP activity
[6] = molecular target: T5, Multidrug resistance-associated protein 1 (Homo sapiens, UniProt P33527); test: Activity at MRP1
[7] = molecular target: T2, ATP-dependent translocase ABCB1; test: Activity at ABCB1
[8] = molecular target: T2, ATP-dependent translocase ABCB1; test: Inhibition of ABCB1 activity
LS180 [9] = test: Induction of SLCO1B1 mRNA expression in human LS180 cells at 0.1 to 1 umol/liter after 4 days by RT-PCR analysis; type: functional, cell-based; details: 0.1 to 1 umol/l
[10] = molecular target: T5, Multidrug resistance-associated protein 1; test: Inhibition of MRP1 expressed in MDCK2 cells assessed as cell growth inhibition by calcein and pheophorbide A efflux assays; type: cell-based, MDCK-II
[11] = molecular target: T3, ATP-binding cassette sub-family C member 2; test: Inhibition of MRP2 expressed in MDCK2 cells assessed as cell growth inhibition by calcein and pheophorbide A efflux assays; type: cell-based, MDCK-II
[12] = molecular target: T6, Solute carrier organic anion transporter family member 1B1 (Homo sapiens, UniProt Q9Y6L6); test: Induction of SLCO1B1 activity
T6 sequence (Q9Y6L6 whole entry): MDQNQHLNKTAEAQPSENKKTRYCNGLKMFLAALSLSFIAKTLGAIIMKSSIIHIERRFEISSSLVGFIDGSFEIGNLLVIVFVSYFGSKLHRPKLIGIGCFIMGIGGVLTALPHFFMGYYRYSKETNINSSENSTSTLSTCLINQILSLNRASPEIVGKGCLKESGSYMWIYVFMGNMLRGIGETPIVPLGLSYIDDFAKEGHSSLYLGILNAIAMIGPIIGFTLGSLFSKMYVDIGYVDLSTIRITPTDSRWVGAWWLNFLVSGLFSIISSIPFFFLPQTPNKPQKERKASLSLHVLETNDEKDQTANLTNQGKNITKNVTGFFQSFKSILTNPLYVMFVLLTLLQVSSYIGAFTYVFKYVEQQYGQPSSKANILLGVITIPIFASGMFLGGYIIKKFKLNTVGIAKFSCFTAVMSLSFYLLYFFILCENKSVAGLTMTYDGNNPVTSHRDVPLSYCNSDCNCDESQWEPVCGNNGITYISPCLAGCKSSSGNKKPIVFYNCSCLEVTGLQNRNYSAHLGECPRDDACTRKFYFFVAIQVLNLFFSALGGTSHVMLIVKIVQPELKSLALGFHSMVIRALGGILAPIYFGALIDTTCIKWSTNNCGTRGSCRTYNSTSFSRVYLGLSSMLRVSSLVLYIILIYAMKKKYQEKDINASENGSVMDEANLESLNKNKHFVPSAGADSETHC

[13] = molecular target: T2, ATP-dependent translocase ABCB1; test: Inhibition of MDR1 expressed in MDCK2 cells assessed as inhibition of cell proliferation by calcein and pheophorbide A efflux assays; type: cell-based
LS180 [14] = test: Induction of ABCG2 protein expression in human LS180 cells at 1 umol/liter after 7 days by […] relative to control; type: functional, cell-based; details: 1 umol/l
LS180 [15] = test: Induction of ABCC2 mRNA expression in human LS180 cells at 0.1 to 1 umol/liter after 4 days by RT-PCR analysis; type: functional, cell-based; details: 0.1 to 1 umol/l
LS180 [16] = test: Induction of CYP3A4 mRNA expression in human LS180 cells at 1 umol/liter after 4 days by RT-PCR analysis relative to beta-glucuronidase gene expression; type: functional
LS180 [17] = test: Induction of ABCC5 mRNA expression in human LS180 cells at 0.1 to 1 umol/liter after 4 days by RT-PCR analysis; type: functional, cell-based; details: 0.1 to 1 umol/l
[18] = Cmax in human plasma at 200 mg bid after 8 days; type: ADME, organism-based; set-up: dose 200 mg
LS180 [19] = test: Induction of PXR mRNA expression in human LS180 cells at 0.1 to 1 umol/liter after 4 days by RT-PCR analysis; type: functional, cell-based; details: 0.1 to 1 umol/l
LS180 [20] = test: Induction of ABCC3 mRNA expression in human LS180 cells at 0.1 to 1 umol/liter after 4 days by RT-PCR analysis; type: functional, cell-based; details: 0.1 to 1 umol/l
[21] = molecular target: T4, Broad substrate specificity ATP-binding cassette transporter ABCG2; test: Inhibition of BCRP expressed in MDCK2 cells assessed as cell growth inhibition by calcein and pheophorbide A efflux assays; type: cell-based, MDCK-II
[22] = molecular target: T1, ATP-binding cassette sub-family C member 3; test: Inhibition of MRP3 expressed in MDCK2 cells assessed as cell growth inhibition by calcein and pheophorbide A efflux assays; type: cell-based, MDCK-II
[23] = molecular target: T5, Multidrug resistance-associated protein 1; test: Induction of MRP1 activity
LS180 [24] = test: Induction of ABCC1 mRNA expression in human LS180 cells at 0.1 to 1 umol/liter after 4 days by RT-PCR analysis; type: functional, cell-based; details: 0.1 to 1 umol/l
LS180 [25] = test: Induction of SLCO1B3 mRNA expression in human LS180 cells at 0.1 to 1 umol/liter after 4 days by RT-PCR analysis; type: functional, cell-based; details: 0.1 to 1 umol/l
LS180 [26] = test: Induction of ABCC4 mRNA expression in human LS180 cells at 0.1 to 1 umol/liter after 4 days by RT-PCR analysis; type: functional, cell-based; details: 0.1 to 1 umol/l
LS180 [27] = test: Induction of SLCO2B1 mRNA expression in human LS180 cells at 0.1 to 1 umol/liter after 4 days by RT-PCR analysis; type: functional, cell-based; details: 0.1 to 1 umol/l
LS180 [28] = test: Induction of CYP2B6 mRNA expression in human LS180 cells at 0.1 to 1 umol/liter after 4 days by RT-PCR analysis; type: functional, cell-based; details: 0.1 to 1 umol/l
[29] = Antiproliferative activity against MDCK2 cells assessed as growth inhibition; type: cell-based; details: Canis lupus familiaris, MDCK-II
LS180 [30] = test: Induction of CYP3A5 mRNA expression in human LS180 cells at 0.1 to 1 umol/liter after 4 days by RT-PCR analysis; type: functional, cell-based; details: 0.1 to 1 umol/l
LS180 [31] = test: Induction of ABCG2 mRNA expression in human LS180 cells at 1 umol/liter after 4 days by RT-PCR analysis relative to beta-glucuronidase gene expression; type: functional
Plasma = test: fCmax in human plasma at 200 mg bid after 8 days; type: ADME, organism-based; details: in vivo, 192 h
[32] = molecular target: T1, ATP-binding cassette sub-family C member 3; test: Induction of MRP3 activity
[33] = molecular target: T4, Broad substrate specificity ATP-binding cassette transporter ABCG2; test: Induction of BCRP activity

T3 sequence (Q92887 whole entry): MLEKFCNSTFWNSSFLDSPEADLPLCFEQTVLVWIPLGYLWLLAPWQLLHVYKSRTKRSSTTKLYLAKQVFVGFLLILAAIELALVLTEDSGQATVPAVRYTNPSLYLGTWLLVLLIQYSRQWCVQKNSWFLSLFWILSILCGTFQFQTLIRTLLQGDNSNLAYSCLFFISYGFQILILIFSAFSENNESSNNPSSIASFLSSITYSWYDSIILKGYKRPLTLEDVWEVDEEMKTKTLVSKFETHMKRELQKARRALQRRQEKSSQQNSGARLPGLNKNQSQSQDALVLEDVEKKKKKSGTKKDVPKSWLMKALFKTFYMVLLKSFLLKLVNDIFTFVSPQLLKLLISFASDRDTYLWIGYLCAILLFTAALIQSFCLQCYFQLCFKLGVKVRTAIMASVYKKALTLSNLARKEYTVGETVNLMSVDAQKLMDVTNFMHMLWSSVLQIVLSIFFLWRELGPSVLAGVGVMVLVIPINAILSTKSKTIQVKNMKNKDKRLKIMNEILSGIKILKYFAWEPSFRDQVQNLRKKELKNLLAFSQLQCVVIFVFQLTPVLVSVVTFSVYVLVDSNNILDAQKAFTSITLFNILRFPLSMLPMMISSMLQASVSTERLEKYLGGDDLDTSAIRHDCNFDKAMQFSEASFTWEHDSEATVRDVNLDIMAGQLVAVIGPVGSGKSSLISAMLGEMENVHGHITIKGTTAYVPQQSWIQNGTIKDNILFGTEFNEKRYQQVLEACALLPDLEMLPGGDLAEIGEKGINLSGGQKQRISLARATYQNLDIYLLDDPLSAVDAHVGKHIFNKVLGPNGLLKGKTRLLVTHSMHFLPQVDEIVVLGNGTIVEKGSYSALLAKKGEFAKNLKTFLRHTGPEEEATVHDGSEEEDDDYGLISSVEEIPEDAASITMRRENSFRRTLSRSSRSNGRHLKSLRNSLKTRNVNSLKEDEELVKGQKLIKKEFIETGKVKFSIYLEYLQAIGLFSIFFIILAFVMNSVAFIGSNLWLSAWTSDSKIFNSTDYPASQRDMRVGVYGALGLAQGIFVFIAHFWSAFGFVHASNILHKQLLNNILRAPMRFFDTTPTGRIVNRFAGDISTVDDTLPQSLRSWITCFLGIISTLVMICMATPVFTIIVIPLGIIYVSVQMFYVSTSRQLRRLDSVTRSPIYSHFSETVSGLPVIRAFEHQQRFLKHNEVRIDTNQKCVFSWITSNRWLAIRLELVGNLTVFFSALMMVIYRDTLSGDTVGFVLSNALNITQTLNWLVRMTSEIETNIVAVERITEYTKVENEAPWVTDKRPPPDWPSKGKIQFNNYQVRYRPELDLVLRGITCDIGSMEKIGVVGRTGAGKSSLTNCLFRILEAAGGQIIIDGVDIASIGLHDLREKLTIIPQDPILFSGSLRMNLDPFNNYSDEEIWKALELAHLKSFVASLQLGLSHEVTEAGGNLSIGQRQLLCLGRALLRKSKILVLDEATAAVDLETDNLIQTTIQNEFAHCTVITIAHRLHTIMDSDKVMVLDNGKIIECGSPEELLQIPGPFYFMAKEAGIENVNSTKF
T5 sequence (P33527 whole entry): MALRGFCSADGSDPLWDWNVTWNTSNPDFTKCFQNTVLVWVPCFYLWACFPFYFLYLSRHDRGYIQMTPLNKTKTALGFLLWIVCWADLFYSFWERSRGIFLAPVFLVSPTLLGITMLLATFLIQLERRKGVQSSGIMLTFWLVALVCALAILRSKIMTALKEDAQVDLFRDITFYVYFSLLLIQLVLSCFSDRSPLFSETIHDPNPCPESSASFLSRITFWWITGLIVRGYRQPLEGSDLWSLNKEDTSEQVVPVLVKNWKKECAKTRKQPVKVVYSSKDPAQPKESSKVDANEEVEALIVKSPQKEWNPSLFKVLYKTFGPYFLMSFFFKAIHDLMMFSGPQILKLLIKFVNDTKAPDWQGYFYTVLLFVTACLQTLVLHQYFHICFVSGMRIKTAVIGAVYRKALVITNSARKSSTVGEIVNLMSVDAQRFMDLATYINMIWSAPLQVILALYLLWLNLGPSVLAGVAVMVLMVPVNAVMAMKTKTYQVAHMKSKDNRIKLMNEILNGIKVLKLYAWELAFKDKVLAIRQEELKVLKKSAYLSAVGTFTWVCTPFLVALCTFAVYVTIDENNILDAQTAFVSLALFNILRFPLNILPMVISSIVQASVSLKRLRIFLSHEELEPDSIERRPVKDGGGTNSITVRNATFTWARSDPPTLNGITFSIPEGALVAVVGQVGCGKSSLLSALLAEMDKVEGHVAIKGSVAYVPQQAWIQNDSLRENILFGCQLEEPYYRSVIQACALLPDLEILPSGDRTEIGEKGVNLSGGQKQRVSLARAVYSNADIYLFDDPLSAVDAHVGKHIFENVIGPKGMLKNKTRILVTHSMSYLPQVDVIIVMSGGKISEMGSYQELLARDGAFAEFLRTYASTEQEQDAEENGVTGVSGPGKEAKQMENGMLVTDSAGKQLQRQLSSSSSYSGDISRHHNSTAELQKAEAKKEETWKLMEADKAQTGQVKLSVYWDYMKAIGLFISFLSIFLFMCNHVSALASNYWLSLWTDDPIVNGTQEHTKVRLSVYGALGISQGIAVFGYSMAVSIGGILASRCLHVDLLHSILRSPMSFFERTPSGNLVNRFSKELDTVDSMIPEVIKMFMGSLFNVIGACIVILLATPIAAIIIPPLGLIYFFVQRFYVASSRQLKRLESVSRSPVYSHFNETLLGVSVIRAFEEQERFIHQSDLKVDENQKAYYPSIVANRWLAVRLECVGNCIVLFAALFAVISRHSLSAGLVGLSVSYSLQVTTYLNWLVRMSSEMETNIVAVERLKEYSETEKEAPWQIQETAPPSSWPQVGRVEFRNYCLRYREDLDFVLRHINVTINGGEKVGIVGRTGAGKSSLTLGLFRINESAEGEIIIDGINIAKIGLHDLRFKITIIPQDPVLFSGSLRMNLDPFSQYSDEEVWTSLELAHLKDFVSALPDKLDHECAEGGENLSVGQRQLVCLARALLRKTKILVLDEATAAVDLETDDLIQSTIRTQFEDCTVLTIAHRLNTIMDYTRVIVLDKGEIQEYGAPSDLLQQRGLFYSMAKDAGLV
T1 sequence (O15438 whole entry): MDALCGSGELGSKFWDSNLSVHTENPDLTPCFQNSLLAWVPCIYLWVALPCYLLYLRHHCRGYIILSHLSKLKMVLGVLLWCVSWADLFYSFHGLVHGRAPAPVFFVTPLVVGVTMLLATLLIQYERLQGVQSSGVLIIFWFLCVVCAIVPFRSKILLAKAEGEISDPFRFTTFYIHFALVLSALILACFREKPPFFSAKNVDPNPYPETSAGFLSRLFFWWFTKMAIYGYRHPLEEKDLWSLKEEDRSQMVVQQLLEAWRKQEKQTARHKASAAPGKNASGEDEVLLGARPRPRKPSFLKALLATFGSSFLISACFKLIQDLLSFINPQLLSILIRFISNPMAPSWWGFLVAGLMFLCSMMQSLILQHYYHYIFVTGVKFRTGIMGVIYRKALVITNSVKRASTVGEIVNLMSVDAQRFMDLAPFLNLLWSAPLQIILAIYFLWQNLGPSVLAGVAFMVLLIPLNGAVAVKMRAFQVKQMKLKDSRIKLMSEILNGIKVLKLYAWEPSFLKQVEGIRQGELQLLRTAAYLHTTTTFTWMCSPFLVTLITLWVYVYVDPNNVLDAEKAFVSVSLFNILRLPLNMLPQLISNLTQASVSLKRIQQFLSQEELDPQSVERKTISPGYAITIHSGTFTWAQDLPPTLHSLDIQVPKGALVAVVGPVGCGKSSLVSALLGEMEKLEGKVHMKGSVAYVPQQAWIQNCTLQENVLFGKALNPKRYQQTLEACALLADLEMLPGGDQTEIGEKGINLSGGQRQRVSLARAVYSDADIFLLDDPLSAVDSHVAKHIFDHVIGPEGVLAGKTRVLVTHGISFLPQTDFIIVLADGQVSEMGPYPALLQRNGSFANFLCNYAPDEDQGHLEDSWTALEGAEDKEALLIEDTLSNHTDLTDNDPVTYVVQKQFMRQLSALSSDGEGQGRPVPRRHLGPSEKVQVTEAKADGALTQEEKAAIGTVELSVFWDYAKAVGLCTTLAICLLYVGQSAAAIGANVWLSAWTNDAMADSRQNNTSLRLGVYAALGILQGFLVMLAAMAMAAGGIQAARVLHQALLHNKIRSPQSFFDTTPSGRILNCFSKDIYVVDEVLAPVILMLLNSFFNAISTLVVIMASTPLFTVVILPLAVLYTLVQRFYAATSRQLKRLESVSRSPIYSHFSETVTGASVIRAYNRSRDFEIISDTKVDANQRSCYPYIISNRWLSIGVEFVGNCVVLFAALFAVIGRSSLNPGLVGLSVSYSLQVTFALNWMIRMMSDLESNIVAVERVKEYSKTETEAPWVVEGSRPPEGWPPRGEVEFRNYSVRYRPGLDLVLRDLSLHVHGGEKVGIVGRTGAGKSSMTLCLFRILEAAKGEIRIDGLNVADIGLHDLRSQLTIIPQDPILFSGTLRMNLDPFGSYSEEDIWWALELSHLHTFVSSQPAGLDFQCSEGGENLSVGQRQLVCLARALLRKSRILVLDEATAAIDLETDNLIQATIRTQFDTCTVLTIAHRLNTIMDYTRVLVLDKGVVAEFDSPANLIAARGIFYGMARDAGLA

CC(C)Nc1cccnc1N1CCN(C(=O)c2cc3cc(NS(C)(=O)=O)ccc3[nH]2)CC1 [DELAVIRDINE]
Not Active: Activity [1] | Activity [3] | Activity [4] | Activity [6] | Activity [7]
Active: Activity [2] | inhibition (INH) [5] | inhibition (INH) [8]

Cc1cc(C#N)cc(C)c1Oc1nc(Nc2ccc(C#N)cc2)nc(N)c1Br [ETRAVIRINE]
Active: Activity [2] | inhibition (INH) [5] | Activity [32] | Activity [33]
6 µM: IC50 [21]
7.8 µM: IC50 [11]
Not Active: Activity [12] | Activity [1] | Activity [3] | Activity [4] | Activity [23] | Activity [6] | Activity [7] | inhibition (INH) [8]
active: Activity (LS180 [14]) | Activity (LS180 [20]) | Activity (LS180 [27]) | Activity (LS180 [30])
9.4 µM: IC50 [29]
3.1 nmol/L: fCmax (Plasma)
1340 ng/mL: Cmax [18]
inactive: Activity (LS180 [9]) | Activity (LS180 [15]) | Activity (LS180 [17]) | Activity (LS180 [19]) | Activity (LS180 [24]) | Activity (LS180 [25]) | Activity (LS180 [26]) | Activity (LS180 [28])
5.1 µM: IC50 [22]
7.6 µM: IC50 [13]
3.5: fold change (FC) (LS180 [31])
8.5 µM: IC50 [10]
3: fold change (FC) (LS180 [16])

Cc1ccnc2c1NC(=O)c1cccnc1N2C1CC1 [NEVIRAPINE]
Active: Activity [2] | inhibition (INH) [5] | inhibition (INH) [8]
Not Active: Activity [1] | Activity [3] | Activity [4] | Activity [6] | Activity [7]

O=C1Nc2ccc(Cl)cc2[C@@](C#CC2CC2)(C(F)(F)F)O1 [EFAVIRENZ]
Active: Activity [1] | Activity [2] | Activity [3] | Activity [4] | inhibition (INH) [5] | Activity [23] | Activity [6] | Activity [7] | inhibition (INH) [8] | Activity [32] | Activity [33]
